Among the data in a melting point compilation (Tetko et al.; mined from patent text by program, amines drawn as free bases though some values may be those of a salt) are melting point values, retold here.

Molecule `OCC1(c2ccccc2)COc2ccccc2O1` (stereo not given) returned a melting point of 114 to 116 °C.

Turning to `CN1C(=O)C(C(=O)OCCN2CCOCC2)N=C(c2ccccc2)c2cc(Cl)ccc21` (stereo not given), the melting point was in the range of 162 to 166 °C.

`CCOc1cc(Oc2ccc(S(C)(=O)=O)nc2)cc2cc(C3=NCC(CC(N)=O)S3)[nH]c12` (stereo not given): the melting point is 195 to 196 °C.

With `CN(C)c1ccc(C(c2cc(C(C)(C)C)c(O)c(C(C)(C)C)c2)N2CCCCC2)cc1` (stereo not given), the melting point fell in the range of 184 to 185 °C.

As for `CC(C)=Cn1ccnc1[N+](=O)[O-]`, the melting point lay in the range of 77 to 79 °C.

The molecule `COC(=O)C(NS(=O)(=O)c1ccc(-c2ccc(NC(=O)c3oc4cccc(C5COC(C)(C)O5)c4c3C)cc2)cc1)C(C)C` (stereo not given) gave a melting point of 192 to 194 °C.

For `NC(=O)N(O)CC#Cc1cccc(Oc2cccnc2)c1`, the melting point was 107 to 110 °C.

On to `CCOC(=O)c1c(C(F)(F)F)nc(C(F)(F)F)c(C(=O)OC)c1N=[N+]=[N-]`, for which the melting point was 46 to 47 °C.

With `CC1=NCC2CN=C(c3ccccc3F)c3cc(Cl)ccc3N12` (stereo not given), the melting point fell in the range of 142 to 144 °C.

Consider `CN(C)CCc1ccc(O)c2c1=NS(=O)(=O)N=2`, for which the melting point is 202 to 205 °C.

For the molecule `CSc1nnnc2c1sc1nc(C)ccc12`, the melting point was 197 to 198 °C.

Consider `CCCCCCCCCCCC(=O)OC1CC(c2ccccc2)N(O)C(c2ccccc2)C1` (stereo not given), for which the melting point is 89 to 90 °C.

`O=S1(=O)CCN2CCCC(c3ccc(Oc4ccc(C(F)(F)F)cc4)cc3)C2=N1` (stereo not given) returned a melting point of 191 to 193 °C.

As for `Cc1nc[nH]c1CSCCNc1cc[nH]c(=O)n1`, the melting point lay within 249 to 251 °C.

With `Cc1c(C(=O)Nc2ccc(N3CCN(C4CCOCC4)CC3)c(C#N)c2)cnn1-c1ccc(Cl)cc1`, the melting point came out at 276 °C.

`COc1ccc(Cl)c(Oc2c(C=O)nc(N3CCOCC3)nc2NS(=O)(=O)c2ccc(C(C)(C)C)cc2)c1` displayed a melting point of 235 to 236 °C.

`Cc1nc2cc(C(c3ccccc3)n3ccnc3)ccc2n(N)c1=O` (stereo not given) registered a melting point of 193 °C.

`C[C@H](C#Cc1ccc(Cc2cc3ccccc3s2)s1)N(O)C(N)=O` gave a melting point of 157 to 159 °C.

Regarding `Cc1cc(-c2nncc3c(-c4ccco4)c(OCc4ncnn4C)nn23)no1`, the melting point was 226 to 228 °C.

Turning to `CC(=O)N(CCN1CCC(Nc2nc3ccccc3n2Cc2ccc(F)cc2)CC1)c1nccs1`, the melting point was in the range of 186 to 193 °C.

As to `COC(=O)OC[C@@H]1CC(c2ccc(-c3ccc(N4C[C@H](Cn5ccnn5)OC4=O)cc3F)cn2)=NO1`, the melting point is 205 °C.

For `CCCCSN(C)C(=O)Nc1ccc(Cl)c(Cl)c1`, the melting point was 47 °C.

On to `CCCCCS(=O)(=O)NC(=O)/C(=C/c1ccc(OCCOC)cc1Oc1ncc(C(F)(F)F)cc1Cl)CC`, for which the melting point is 104 to 106 °C.

In the case of `CCCN(CC(O)C(Cc1ccccc1)NC(=O)C(C)CS(C)(=O)=O)S(=O)(=O)c1ccc(OC)cc1` (stereo not given), the melting point fell in the range of 88 to 92 °C.

In turn, `C=CCOc1ccc(S(=O)(=O)c2ccc(OCC=C)cc2)cc1` came in with a melting point of 140 to 142 °C.

The molecule `O=S(=O)(c1ccc(Br)cc1)N1CCNCC1` came in with a melting point of 102 to 104 °C.

Turning to `CC(C)(O)CCCCCc1ccc(CCc2cc(O)cc(O)c2)cc1`, the melting point lay in the range of 128 to 130 °C.

Regarding `Cc1cc(C(C)(C)C)cc(C)c1[N+](=O)[O-]`, the melting point was in the range of 80 to 82 °C.

The molecule `COc1ccc2c(c1)c(-c1cc3c(OC)ccnc3[nH]1)cn2C` displayed a melting point of 288 to 289 °C.

`CCCc1c(Br)sc2[nH]c(=O)c(=O)[nH]c12` registered a melting point of 269 to 271 °C.

`CCNc1nc(SC)ncc1CNc1c(F)c(OC)cc(OC)c1F` came in with a melting point of 95 to 99 °C.

`O=C(c1ccc(-n2ccnc2)cc1)N1CCN(S(=O)(=O)c2cc3cc(Cl)ccc3o2)CC1` came in with a melting point of 175 to 177 °C.

`CCCCCCCCc1c(N)nc(-n2cncn2)nc1CC` showed a melting point of 90 to 91 °C.

`CCCCc1nc(Cl)c(CO)n1Cc1ccc(NC(=O)[C@H](CC#N)NC(=O)OCc2ccccc2)cc1` yielded a melting point of 89 to 91 °C.

On to `COc1ccc(C2NCCS2)cc1` (stereo not given), for which the melting point fell in the range of 94 to 95 °C.

For the molecule `O=c1ccn(-c2cccc(C(F)(F)F)c2)nc1-n1ccnc1-c1ccccc1`, the melting point was in the range of 204 to 205 °C.

In turn, `O=C(NCc1ccc(Cl)cc1)c1cn2c(CO)cc3cccc(c1=O)c32` had a melting point of 211 to 213 °C.

`CN(C(=O)OC(C)(C)C)c1cc(Oc2cc(C(C)(C)C)c(O)cc2C(C)(C)C)ccc1N` yielded a melting point of 208 to 210 °C.

Regarding `CCCN(CCC)C(=O)CN(C(=O)CNC(=O)Nc1cccc(C)c1)c1ccccc1`, the melting point is 182 °C.

`CC(=O)SCC(Cc1ccccc1)C(=O)Nc1cccc(C(=O)O)c1` (stereo not given) returned a melting point of 169 to 170 °C.

Molecule `COc1ccc(CNc2nc(Cl)cc(Cn3c(C(=O)c4cc(C)cc(C#N)c4)c(C(C)C)c(=O)[nH]c3=O)n2)cc1` registered a melting point of 337 to 338 °C.

`Cc1ccccc1-c1cc(O)ncc1C(=O)N(C)Cc1cc(C(F)(F)F)cc(C(F)(F)F)c1` showed a melting point of 91 to 93 °C.

For `FC(F)(F)c1cccc(CN2C(=NCCCn3ccnc3)c3cccc4cccc2c34)c1`, the melting point fell in the range of 108 to 109 °C.

On to `CCC(=O)NCC(CCO)c1cccc2ccc(OC)cc12` (stereo not given), for which the melting point is 123 to 125 °C.

`CC1(C)Oc2ccc(-c3c(NCCO)c(=O)c3=O)cc2[C@@H](N2Cc3ccccc3C2=O)[C@@H]1O` (relative stereo) returned a melting point of 205 to 215 °C.

Molecule `COCC(=O)N(C)c1cccc(OCc2ccccc2)c1[N+](=O)[O-]` returned a melting point of 111 to 112 °C.

In the case of `Cc1cc(-n2cnn(CCC3CC3)c2=O)sc1C(=O)NCc1cccnc1`, the melting point is 148 to 150 °C.

Turning to `O=C1Nc2ccc(O)cc2Sc2ccccc21`, the melting point lay in the range of 265 to 267 °C.

Regarding `CC(C)(COc1ccccc1C1NC(C(=O)O)CS1)CO[N+](=O)[O-]` (stereo not given), the melting point was in the range of 105 to 108 °C.

As for `Cc1nn(-c2ccccn2)cc1COc1ccc(CO)cc1`, the melting point is 83 to 84 °C.

With `O=C1Nc2cc(CN3CC=C(c4ccc(Cl)cc4)CC3)cnc2N2CCCCC12` (stereo not given), the melting point came to 202 °C.

In turn, `Cc1cc(C(N)=O)ncc1C(c1c(F)ccc(F)c1F)S(=O)(=O)c1ccc(OC(F)(F)F)cc1` (stereo not given) came in with a melting point of 219 to 220 °C.

Molecule `COc1ccc(CNCC(O)COc2cccc3[nH]c4ccccc4c23)c(OC)c1` (stereo not given) displayed a melting point of 152 to 154 °C.

On to `O=C(NC(Cc1ccc(OCc2ccccc2)cc1)C(=O)O)c1nc2ccc(-c3ccc(Cl)cc3)cc2[nH]1` (stereo not given), for which the melting point is 260 to 261 °C.

Consider `OC(CCl)CNC(c1ccccc1)c1ccccc1` (stereo not given), for which the melting point fell in the range of 66 to 68 °C.

`Cc1cccc(OC(C)(C)C(=O)NCCc2ccc(OC(C)(C)C(=O)O)cc2)c1` displayed a melting point of 85 to 88 °C.

Take `O=C(Nc1ccnn1-c1c(Cl)cc(C(F)(F)F)c(Cl)c1Cl)C(Cl)Cl`: the melting point was in the range of 156 to 161 °C.

`CCOC(=O)C1=C(N)N=C(OCC)C(C(=O)OCC)C1c1cccc(C(=O)OCC)c1` (stereo not given) gave a melting point of 87 °C.

Turning to `CCCCOc1cc(-c2cc3ccccc3[nH]2)ccc1OCC`, the melting point is 139 °C.

Molecule `COP(=O)(CC(=O)COc1cccc(Cl)c1)OC` had a melting point of 78 to 79 °C.

As to `O=C(CCc1ccccc1)c1ccc(Cl)cc1`, the melting point was 78 to 79 °C.

In turn, `CCCCCCCCCC(CCC)CC(C)CC(O)c1cc(O)ccc1O` (stereo not given) had a melting point of 123 °C.

Take `Nc1cccc(-c2ccc(-c3ccccc3)cc2)c1N`: the melting point fell in the range of 203 to 206 °C.

As to `CO/C(=C\C=C\c1cc2cc(Cl)c(Cl)cc2[nH]1)C(=O)NC1CC(C)(C)N(C)C(C)(C)C1`, the melting point came out at 212 °C.

Take `CCCOc1cc(C=CC(=O)N2CCN(c3ccc(NC(=N)c4cccs4)cc3)CC2)cc(OCCC)c1O`: the melting point is 72 to 73 °C.

Turning to `O=C(O)c1ccc(-c2cnc(-c3ccc(Cl)cc3)o2)cc1`, the melting point lay in the range of 268 to 270 °C.

On to `Oc1c(-c2ccccc2)nn(Cc2ccccc2)c1-c1ccccc1`, for which the melting point is 194 to 195 °C.

Turning to `CCOCc1nc2c(N)nc3c(c2n1CC1(O)CCCC1)NCCC3`, the melting point was in the range of 207 to 208 °C.

On to `O=S(=O)(Oc1ccc2sc(-c3ccc(OCCN4CCCC4)cc3)cc2c1)C(F)(F)F`, for which the melting point fell in the range of 95 to 99 °C.

The molecule `CCCCCCCC(c1cc(C)cc(N=Nc2ccc(C)cc2[N+](=O)[O-])c1O)c1cc(C)cc(N=Nc2ccc(C)cc2[N+](=O)[O-])c1O` (stereo not given) returned a melting point of 145 °C.

Molecule `O=C(c1ccccc1[N+](=O)[O-])C1CCN(C(=O)C(F)(F)F)CC1` registered a melting point of 126 °C.

For `O=S(=O)(c1ccc(F)cc1)N1CCCC1c1ccc(F)c(Cl)c1` (racemic), the melting point came to 116 °C.

Turning to `OCc1cc2cccc3cc(-c4ccc(O)cc4)c1n23`, the melting point was 185 to 190 °C.

`Cc1cccc(C)c1NC(=O)CCN1CCN(CCCC(c2ccc(F)cc2)c2ccc(F)cc2)C(C(N)=O)C1` (stereo not given) showed a melting point of 121 °C.

Turning to `COc1nc2cc(Cl)c(Cl)c(N(CCO)S(C)(=O)=O)c2nc1OC`, the melting point fell in the range of 240 to 242 °C.

In the case of `NC(=O)c1nc(-c2cccc(N)c2)cs1`, the melting point lay in the range of 193 to 194 °C.

`O=c1[nH]c2ncc(-c3ccc(-c4cn[nH]c4)cc3)nc2n1CC1CCCCC1` showed a melting point of 305 to 307 °C.

In turn, `Nc1c(-c2ccc(C(F)(F)F)cc2F)nnn1Cc1ccc(S(N)(=O)=O)cc1` returned a melting point of 180 to 181 °C.

Turning to `C=CCOC(=O)c1ccc(CC(=O)OC(C)(C)C)cc1`, the melting point was 68 to 69 °C.

On to `CC12CCC(C(=O)O)=CC1=CCC1C2CCC2(C)C(C(=O)c3ccc(F)cc3)CCC12` (stereo not given), for which the melting point came out at 255 °C.

For `COc1cc(C=O)cc(I)c1OCc1ccccc1`, the melting point is 53 to 54 °C.

In turn, `CN1CC=C(c2cccc(C(F)(F)F)c2)n2ncc(C#N)c21` showed a melting point of 120 to 122 °C.

Regarding `CCN(CC)C(=O)COc1cc(N)c(Cl)cc1C(=O)OC`, the melting point fell in the range of 97.5 to 99.5 °C.

On to `COc1ccc(-c2c(C=O)ccc3cc(OC)ccc23)cc1`, for which the melting point fell in the range of 99 to 101 °C.

As to `CC[C@@H](COC)n1cc(Cl)nc(N2CCc3cc(Br)cc(Cl)c32)c1=O`, the melting point was in the range of 121 to 122 °C.
